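How tested: cells in 96-well plates exposed to compound for 48 hours at five concentrations. GI50 is the concentration that inhibits growth by half.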 Active and inactive are the calls of the source. Cut-off read from the data, not from the text of the source: active = GI50 up to about 1.1 µM and inactive = higher.
Columns and labels:
Assay in all cases: DTP human tumour cell line panel, 48 h
NCI-H460 = system: NCI-H460
HT-29 = system: HT-29
SN12C = system: SN12C
SW-620 = system: SW-620
ACHN = system: ACHN
SK-MEL-28 = system: SK-MEL-28
HOP-62 = system: HOP-62
786-0 = system: 786-0
HCT-116 = system: HCT-116
OVCAR-8 = system: OVCAR-8
NCI-H226 = system: NCI-H226
MDA-MB-231 = system: MDA-MB-231
MOLT-4 = system: MOLT-4
K562 = system: K562
HCC 2998 = system: HCC 2998
SK-MEL-5 = system: SK-MEL-5
SK-OV-3 = system: SK-OV-3

Measured: GI50

C[C@H](CCC(=O)O)[C@H]1CC[C@H]2[C@@H]3[C@@H](O)C[C@@H]4C[C@H](O)CC[C@]4(C)[C@H]3C[C@H](O)[C@]12C
inactive: NCI-H460 > 100 µM | HT-29 > 100 µM | SN12C > 100 µM | SW-620 > 100 µM | ACHN > 100 µM | SK-MEL-28 > 100 µM | HOP-62 > 100 µM | 786-0 > 100 µM | HCT-116 > 100 µM | OVCAR-8 > 100 µM | NCI-H226 > 100 µM | MDA-MB-231 > 100 µM | MOLT-4 > 100 µM | K562 > 100 µM | HCC 2998 > 100 µM

COC1OC(CO)C(O)C(OC(=O)c2cc(O)c(O)c(O)c2)C1OC(=O)c1cc(O)c(O)c(O)c1 (centres undefined)
inactive: NCI-H460 69.5 µM | SK-MEL-5 36.7 µM | HT-29 65 µM | SN12C 61.9 µM | SW-620 41.6 µM | ACHN 58.2 µM | SK-MEL-28 > 100 µM | HOP-62 91 µM | 786-0 > 100 µM | HCT-116 37.7 µM | OVCAR-8 > 100 µM | NCI-H226 > 100 µM | SK-OV-3 > 100 µM | MDA-MB-231 > 100 µM | MOLT-4 79.4 µM | K562 35.6 µM

C[Si](C)(C)C1=C2C(=O)c3ccccc3C(=O)C2=C([Si](C)(C)C)[C@@H]2CCCC[C@H]12
inactive: NCI-H460 > 100 µM | SK-MEL-5 > 100 µM | SN12C > 100 µM | SW-620 > 100 µM | ACHN > 100 µM | SK-MEL-28 > 100 µM | HCT-116 > 100 µM | SK-OV-3 > 100 µM | MDA-MB-231 > 100 µM | MOLT-4 > 100 µM | K562 > 100 µM | HCC 2998 > 100 µM

CC(NC(CC12CC3CC(CC(C3)C1)C2)C(N)=O)c1ccccc1 (centres undefined)
inactive: NCI-H460 17.4 µM | SK-MEL-5 13.4 µM | HT-29 21 µM | SW-620 31.1 µM | ACHN 20.9 µM | SK-MEL-28 20 µM | HOP-62 28.1 µM | HCT-116 18.7 µM | OVCAR-8 23.6 µM | SK-OV-3 5.27 µM | MDA-MB-231 29.3 µM | MOLT-4 16.2 µM | K562 17.5 µM | HCC 2998 17.5 µM

CCOP(=O)(OCC)C(c1ccc(F)cc1)N(C(=O)NC(F)(F)F)c1ccc(F)cc1 (centres undefined)
inactive: NCI-H460 > 100 µM | SK-MEL-5 > 100 µM | HT-29 > 100 µM | SN12C > 100 µM | SW-620 > 100 µM | ACHN > 100 µM | SK-MEL-28 > 100 µM | HOP-62 > 100 µM | 786-0 > 100 µM | HCT-116 > 100 µM | OVCAR-8 > 100 µM | NCI-H226 > 100 µM | MDA-MB-231 > 100 µM | MOLT-4 > 100 µM | K562 > 100 µM | HCC 2998 > 100 µM

c1ccc(C(=NCCC2CNc3ccccc32)c2ccccc2)cc1 (centres undefined)
inactive: NCI-H460 > 100 µM | SK-MEL-5 > 100 µM | HT-29 > 100 µM | SW-620 > 100 µM | ACHN > 100 µM | SK-MEL-28 > 100 µM | HOP-62 > 100 µM | 786-0 > 100 µM | HCT-116 > 100 µM | OVCAR-8 > 100 µM | SK-OV-3 > 100 µM | MDA-MB-231 > 100 µM | MOLT-4 > 100 µM | K562 > 100 µM | HCC 2998 > 100 µM

COc1ccc(C2(C3c4cc(OC)c(OC)cc4CCN3C)SCCCS2)cc1O (centres undefined)
inactive: NCI-H460 > 100 µM | SK-MEL-5 > 100 µM | HT-29 49.3 µM | SN12C > 100 µM | SW-620 > 100 µM | SK-MEL-28 68.2 µM | HOP-62 > 100 µM | 786-0 > 100 µM | HCT-116 67.9 µM | OVCAR-8 > 100 µM | SK-OV-3 72.9 µM | MDA-MB-231 > 100 µM | MOLT-4 26 µM | K562 95.1 µM | HCC 2998 > 100 µM

C/C(Cc1ccc2c(c1)OCO2)=N\N=c1\sc2ccccc2n1C
inactive: SK-MEL-5 45.2 µM | HT-29 42.8 µM | SN12C > 100 µM | SW-620 > 100 µM | ACHN > 100 µM | SK-MEL-28 > 100 µM | HOP-62 > 100 µM | 786-0 > 100 µM | HCT-116 48.5 µM | OVCAR-8 > 100 µM | NCI-H226 > 100 µM | MDA-MB-231 > 100 µM | MOLT-4 78.3 µM | K562 > 100 µM | HCC 2998 > 100 µM

Cn1c(=O)oc2cc(C(=S)N3CCCCC3)ccc21
inactive: NCI-H460 > 100 µM | SK-MEL-5 > 100 µM | HT-29 > 100 µM | SN12C > 100 µM | SW-620 > 100 µM | ACHN > 100 µM | SK-MEL-28 > 100 µM | HOP-62 > 100 µM | 786-0 > 100 µM | HCT-116 > 100 µM | OVCAR-8 > 100 µM | NCI-H226 > 100 µM | SK-OV-3 > 100 µM | MDA-MB-231 > 100 µM | MOLT-4 > 100 µM | K562 > 100 µM

Cc1cn(C2CC(O)C(Cn3nncc3Cn3cnc4c(N)ncnc43)O2)c(=O)[nH]c1=O (centres undefined)
inactive: SK-MEL-5 > 100 µM | SN12C > 100 µM | SW-620 > 100 µM | ACHN > 100 µM | SK-MEL-28 > 100 µM | HOP-62 > 100 µM | 786-0 > 100 µM | HCT-116 > 100 µM | OVCAR-8 26.4 µM | NCI-H226 > 100 µM | SK-OV-3 > 100 µM | MOLT-4 > 100 µM | HCC 2998 > 100 µM

N#Cc1sc2c(c1O)c(=O)n(-c1ccccc1)c(=S)n2-c1ccccc1
inactive: NCI-H460 > 100 µM | SK-MEL-5 > 100 µM | HT-29 > 100 µM | SN12C > 100 µM | SW-620 > 100 µM | ACHN > 100 µM | SK-MEL-28 > 100 µM | 786-0 > 100 µM | OVCAR-8 > 100 µM | NCI-H226 > 100 µM | MDA-MB-231 > 100 µM | K562 89.1 µM | HCC 2998 > 100 µM

COc1cc(C(c2cc(OC)c(OC)c(OC)c2)N2C(=O)CCC2C(=O)O)cc(OC)c1OC (centres undefined)
inactive: NCI-H460 > 100 µM | SK-MEL-5 > 100 µM | HT-29 > 100 µM | SN12C > 100 µM | SW-620 > 100 µM | ACHN > 100 µM | SK-MEL-28 > 100 µM | HOP-62 > 100 µM | 786-0 > 100 µM | HCT-116 > 100 µM | OVCAR-8 > 100 µM | NCI-H226 > 100 µM | SK-OV-3 > 100 µM | MDA-MB-231 > 100 µM | MOLT-4 > 100 µM | K562 > 100 µM

CC1=C(C(=O)N[C@@H](CC(C)C)C(=O)O)N2C(=O)[C@@H](NC(=O)[C@@H](N)Cc3ccccc3)[C@H]2SC1
inactive: NCI-H460 > 100 µM | SK-MEL-5 > 100 µM | SN12C > 100 µM | SW-620 > 100 µM | ACHN > 100 µM | SK-MEL-28 > 100 µM | 786-0 > 100 µM | OVCAR-8 > 100 µM | NCI-H226 > 100 µM | MDA-MB-231 > 100 µM | MOLT-4 > 100 µM | K562 > 100 µM | HCC 2998 > 100 µM
